According to patent US6215002A, “Pyrrolopyrrolone derivatives as inhibitors of neutrophil elastase” (priority 1996, dated 2001):
Counter-ions that a name gives are not always drawn.

Tests used:
Intracellular elastase = experiment: Oral in vivo model using IL-8 induced lung infiltrates for the assessment of intracellular elastase inhibition (hamster test); conditions: effective dose of less than 40 mg/kg, IL-8 intratracheal
Method: An Oral in vivo Model Using IL-8 Induced Lung Infiltrates For the Assessment of Intracellular Elastase Inhibition
Adult hamsters (100-150 g) are randomised into groups (n=4) and fasted overnight. Under gaseous anaesthetic (3% isofluorane) animals are dosed orally with 1 mL/100 g water as vehicle or containing predissolved compounds. Either at the same time, or subsequently under anaesthetic, animals are dosed intratracheally with 1 ug recombinant human IL-8 in 100 uL sterile saline. Six hours after IL-8 dosing animals are sacrificed using intrapertoneal pentobarbitone. The lungs are ravaged with 2×2.5 mL sterile saline and femurs are removed by dissection.
Intracellular elastase is prepared from neutrophils collected by lavage and from femoral bone marrow. This is achieved by sonication of the neutrophils and centrifugation to yield intracellular granules. These are disrupted by freeze/thawing and sonication. Elastase and myeloperoxidase assays are then performed on these samples to assess the efficacy of the compounds and to normalise for neutrophil recovery.

[1] = target: T1, human neutrophil elastase (Homo sapiens, UniProt P08246); experiment: In vitro assay of human neutrophil elastase (HNE); assay type: biochemical; conditions: 118 nM purified human neutrophil elastase, pH 8.6, 15 min incubation at 30° C., MeO-succinyl-alanyl-alanyl-prolyl-valyl-p-nitroanilide substrate; read-out: HNE IC50
T1 sequence (P08246 30-267): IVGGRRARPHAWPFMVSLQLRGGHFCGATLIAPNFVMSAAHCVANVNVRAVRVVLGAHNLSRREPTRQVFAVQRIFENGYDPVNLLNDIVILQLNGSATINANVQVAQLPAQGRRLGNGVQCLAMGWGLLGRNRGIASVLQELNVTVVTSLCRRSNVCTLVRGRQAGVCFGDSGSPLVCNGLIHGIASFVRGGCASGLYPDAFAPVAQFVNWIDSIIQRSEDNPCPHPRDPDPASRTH
Procedure, shortened: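 Residual activity was taken as the 10 min rate of absorbance rise at 405 nm after adding 0.6 mM MeO-succinyl-AAPV-p-nitroanilide. Curve fitting of activity against concentration gave IC50.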

SMILES	IC50 [1]	duration of effect (Intracellular elastase)
CC(C)[C@H]1C(=O)N(S(C)(=O)=O)[C@H]2CCN(C(=O)/C=C/CN(C(C)C)C(C)C)[C@H]12.Cl (relative stereo) [Example 144, rel-(3R,3aR,6aS)-4-(4-Diisopropylamino-but-2E-enoyl)-3-isopropyl-1-methanesulfonyl-hexahydro-pyrrolo[3,2-b]pyrrol-2-one hydrochloride]	71 nM	at least 6 hours
CCN(CC)C/C=C/C(=O)N1CC[C@H]2[C@H]1[C@@H](C(C)C)C(=O)N2S(C)(=O)=O (relative stereo) [Example 145, rel-(3R,3aR,6aS)-4-Diethylamino-but-2E-enoyl)-3-isopropyl-1-methanesulfonyl-hexahydro-pyrrolo[3,2-b]pyrrol-2-one hydrochloride]	39 nM	at least 6 hours
CON(C)C/C=C/C(=O)N1CC[C@H]2[C@H]1[C@@H](C(C)C)C(=O)N2S(C)(=O)=O (relative stereo) [Example 147, rel-(3R,3aR,6aS)-3-Isopropyl-1-methanesulfonyl-4-[4-(methoxy-methyl-amino)-but-E2-enoyl]-hexahydro-pyrrolo[3,2-b]pyrrol-2-one hydrochloride]	96 nM	at least 6 hours
CC(C)[C@H]1C(=O)N(S(C)(=O)=O)[C@H]2CCN(C(=O)/C=C/CN3C(C)CCC3C)[C@H]12.Cl (relative stereo) [Example 149, rel-(3R,3aR,6aS)-4-[4-(2,5-Dimethyl-pyrrolidin-1-yl)-but-2E-enoyl]-3-isopropyl-1-methanesulfonyl-hexahydro-pyrrolo[3,2-b]pyrrol-2-one hydrochloride]	46 nM	at least 6 hours
CC(C)[C@H]1C(=O)N(S(C)(=O)=O)[C@H]2CCN(C(=O)/C=C/CN(C)CC(N)=O)[C@H]12 (relative stereo) [Example 150, rel-2-{[(4-(6R-Isopropyl-4-methanesulfonyl-5-oxo-hexahydro-(3aS,6aR)-pyrro[3,2-b]pyrrol-1-yl)-4-oxo-but-2E-enyl]-methyl-amino}-acetamide hydrochloride]	50 nM	at least 6 hours
CC(C)NC/C=C/C(=O)N1CC[C@H]2[C@H]1[C@@H](C(C)C)C(=O)N2S(C)(=O)=O.Cl (relative stereo) [Example 151, rel-(3R,3aR,6aS)-3-Isopropyl-4-(4-isopropylamino-but-2E-enoyl)-1-methanesulfonyl-hexahydro-pyrrolo[3,2-b]pyrrol-2-one hydrochloride]	85 nM	at least 6 hours
CC(C)[C@H]1C(=O)N(S(C)(=O)=O)[C@H]2CCN(C(=O)/C=C/CN3C[C@H]4Cc5c(F)ccc(F)c5C[C@@H]4C3)[C@H]12 (relative stereo) [Example 153, rel-(3R,3aR,6aS)-4-[4-(5,8-Difluoro-1,3,3a,4,9,9a-hexahydro-(3aS,9aS)-benzol[f]isoindol-2-yl)-but-2E-enoyl]-3-isopropyl-1-methanesulfonyl-hexahydro-pyrrolo[3,2-b]pyrrol-2-one hydrochloride]	114 nM	at least 6 hours
CC(C)[C@H]1C(=O)N(S(C)(=O)=O)[C@H]2CCN(C(=O)c3ccc(CN4CCCC4)cc3)[C@H]12.Cl (relative stereo) [Example 173, rel-(3R,3aR,6aS)-3-Isopropyl-1-methanesulfonyl-4-(4-pyrrolidin-1-ylmethyl-benzoyl)-hexahydro-pyrrolo[3,2-b]pyrrol-2-one hydrochloride]	65 nM	at least 6 hours
CC(C)[C@H]1C(=O)N(S(C)(=O)=O)[C@H]2CCN(C(=O)c3ccc(CN(C)C)cc3)[C@H]12.Cl (relative stereo) [Example 175, rel-(3R,3aR,6aS)-4-(4-Dimethylaminomethyl-benzoyl)-3-isopropyl-1-methanesulfonyl-hexahydro-pyrrolo[3,2-b]pyrrol-2-one hydrochloride]	74 nM	at least 6 hours
CC(C)[C@H]1C(=O)N(S(C)(=O)=O)[C@H]2CCN(C(=O)c3ccc(CN4CCN(C)CC4)cc3)[C@H]12.Cl.Cl (relative stereo) [Example 176, rel-(3R,3aR,6aS)-3-Isopropyl-1-methanesulfonyl-4-[4-(4-methyl-piperazin-1-ylmethyl)-benzoyl]-hexahydro-pyrrolo[3,2-b]pyrrol-2-one dihydrochloride]	90 nM	at least 6 hours
CC(C)[C@H]1C(=O)N(S(C)(=O)=O)[C@H]2CCN(C(=O)c3ccc(CN4CCCCCC4)cc3)[C@H]12 (relative stereo) [Example 178, rel-(3R,3aR,6aS)-4-(4-Azepin-1-ylmethyl-benzoyl)-3-isopropyl-1-methanesulfonyl-hexahydro-pyrrolo[3,2-b]pyrrol-2-one hydrochloride]	68 nM	at least 6 hours
CC(C)NCc1ccc(C(=O)N2CC[C@H]3[C@H]2[C@@H](C(C)C)C(=O)N3S(C)(=O)=O)cc1.Cl (relative stereo) [Example 179, rel-(3R,3aR,6aS)-3-Isopropyl-4-[4-(isopropylamino-methyl)-benzoyl]-1-methanesulfonyl-hexahydro-pyrrolo[3,2-b]pyrrol-2-one hydrochloride]	47 nM	at least 6 hours
CC(C)[C@H]1C(=O)N(S(C)(=O)=O)[C@H]2CCN(C(=O)c3ccc(CNC4CC4)cc3)[C@H]12.Cl (relative stereo) [Example 180, rel-(3R,3aR,6aS)-4(4-Cyclopropylaminomethyl-benzoyl)-3-isopropyl-1-methanesulfonyl-hexahydro-pyrrolo[3,2-b]pyrrol-2-one hydrochloride]	42 nM	at least 6 hours
CCCN(C)Cc1ccc(C(=O)N2CC[C@H]3[C@H]2[C@@H](C(C)C)C(=O)N3S(C)(=O)=O)cc1.Cl (relative stereo) [Example 181, rel-(3R,3aR,6aS)-3-Isopropyl-1-methanesulfonyl-4-{4-[(methyl-propyl-amino)-methyl]-benzoyl}-hexahydro-pyrrolo[3,2-b]pyrrol-2-one hydrochloride]	42 nM	at least 6 hours

The next compounds have a lower IC50 [1] than those just listed; values first:

IC50 [1]	SMILES	duration of effect (Intracellular elastase)
34 nM	CC(C)[C@H]1C(=O)N(S(C)(=O)=O)[C@H]2CCN(C(=O)/C=C/CN3CCCC3)[C@H]12.Cl (relative stereo) [Example 146, rel-(3R,3aR,6aS)-3-Isopropyl-1-methanesulfonyl-4(4-pyrrolidin-1-yl-but-2E-enoyl)-hexahydro-pyrrolo[3,2-b]pyrrol-2-one hydrochloride]	at least 6 hours
35 nM	CC(C)[C@H]1C(=O)N(S(C)(=O)=O)[C@H]2CCN(C(=O)/C=C/CN(C)C)[C@H]12.Cl (relative stereo) [Example 148, rel-(3R,3aR,6aS)-4-(4-Dimethylamino-but-2E-enoyl)-3-isopropyl-1-methanesulfonyl-hexahydro-pyrrolo[3,2-b]pyrrol-2-one hydrochloride]	at least 6 hours
21 nM	CC(C)[C@H]1C(=O)N(S(C)(=O)=O)[C@H]2CCN(C(=O)/C=C/CN3CCC(C(N)=O)CC3)[C@H]12.Cl (relative stereo) [Example 152, rel-1-[4-(6R-Isopropyl-4-methanesulfonyl-5-oxo-hexahydro-(3aS,6aR)-pyrrolo[3,2-b]pyrrol-1-yl)-4-oxo-but-2E-enyl]-piperidine-4-carboxylic acid amide hydrochloride]	at least 6 hours
19 nM	CC(C)[C@H]1C(=O)N(S(C)(=O)=O)[C@H]2CCN(C(=O)/C=C/c3ccc(CN4CCCCC4)cc3)[C@H]12.Cl (relative stereo) [Example 158, rel-(3R,3aR,6aS)-3-Isopropyl-1-methanesulfonyl-4-[3-(4-piperidin-1-ylmethyl-phenyl)-(E)-acryloyl]-hexahydro-pyrrolo[3,2-b]pyrrol-2-one hydrochloride]	at least 6 hours
17 nM	CC(C)[C@H]1C(=O)N(S(C)(=O)=O)[C@H]2CCN(C(=O)/C=C/c3ccc(CN(C)C)cc3)[C@H]12 (relative stereo) [Example 159, hydrochloride]	at least 6 hours
13 nM	CC(C)[C@H]1C(=O)N(S(C)(=O)=O)[C@H]2CCN(C(=O)c3ccc(CN4CCCCC4)cc3)[C@H]12.Cl (relative stereo) [Example 174, rel-(3R,3aR,6aS)-3-Isopropyl-1-methanesulfonyl-4-(4-piperidin-1-ylmethyl-benzoyl)-hexahydro-pyrrolo[3,2-b]pyrrol-2-one hydrochloride]	at least 6 hours
20 nM	CC(C)[C@H]1C(=O)N(S(C)(=O)=O)[C@H]2CCN(C(=O)c3ccc(CN4CCOCC4)cc3)[C@H]12.Cl (relative stereo) [Example 177, rel-(3R,3aR,6aS)-3-Isopropyl-1-methanesulfonyl-4-(4-morpholin-4-ylmethyl-benzoyl)-hexahydro-pyrrolo[3,2-b]pyrrol-2-one hydrochloride]	at least 6 hours
